The supplement of paper PMC10307832

What was measured:
Assay in all cases: relative viability (nuclei count vs DMSO), 5 days (fraction); higher = more cells survive
Carfilzomib + Phenformin = compound: CC(C)C[C@H](NC(=O)[C@H](CCc1ccccc1)NC(=O)CN1CCOCC1)C(=O)N[C@@H](Cc1ccccc1)C(=O)N[C@@H](CC(C)C)C(=O)[C@@]1(C)CO1 [Carfilzomib] + N=C(N)NC(=N)NCCc1ccccc1 [Phenformin] (partner 250 µM)
Summary of the method: (§1)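 Each reported value is a median over duplicate plates. It expresses relative viability: treated-well nuclei count divided by vehicle-well nuclei count. Lung cancer cell lines in 1536-well plates were dosed by pin tool a day after seeding, alone with one drug or with a fixed anchor-drug dose plus five library-drug doses (not always all listed) in √10 steps, and nuclei were counted after 5 days.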

Carfilzomib + AZD7762 = compound: CC(C)C[C@H](NC(=O)[C@H](CCc1ccccc1)NC(=O)CN1CCOCC1)C(=O)N[C@@H](Cc1ccccc1)C(=O)N[C@@H](CC(C)C)C(=O)[C@@]1(C)CO1 [Carfilzomib] + NC(=O)Nc1cc(-c2cccc(F)c2)sc1C(=O)N[C@H]1CCCNC1 [AZD7762] (partner 0.2 µM)
Summary of the method: as §1

Crizotinib + Olaparib = compound: C[C@@H](Oc1cc(-c2cnn(C3CCNCC3)c2)cnc1N)c1c(Cl)ccc(F)c1Cl [Crizotinib] + O=C(c1cc(Cc2n[nH]c(=O)c3ccccc23)ccc1F)N1CCN(C(=O)C2CC2)CC1 [Olaparib] (partner 8 µM)
Summary of the method: as §1

Crizotinib + Pictilisib = compound: C[C@@H](Oc1cc(-c2cnn(C3CCNCC3)c2)cnc1N)c1c(Cl)ccc(F)c1Cl [Crizotinib] + CS(=O)(=O)N1CCN(Cc2cc3nc(-c4cccc5[nH]ncc45)nc(N4CCOCC4)c3s2)CC1 [Pictilisib] (partner 1 µM)
Summary of the method: as §1

Cell Line | relative viability (Carfilzomib + Phenformin; first compound 0.001 µM) | relative viability (Carfilzomib + Phenformin; first compound 0.003162 µM) | relative viability (Carfilzomib + Phenformin; first compound 0.01 µM) | relative viability (Carfilzomib + Phenformin; first compound 0.03162 µM) | relative viability (Carfilzomib + Phenformin; first compound 0.1 µM) | relative viability (Carfilzomib + AZD7762; first compound 0.001 µM) | relative viability (Carfilzomib + AZD7762; first compound 0.003162 µM) | relative viability (Carfilzomib + AZD7762; first compound 0.01 µM) | relative viability (Carfilzomib + AZD7762; first compound 0.03162 µM) | relative viability (Carfilzomib + AZD7762; first compound 0.1 µM) | relative viability (Crizotinib + Olaparib; first compound 0.01 µM) | relative viability (Crizotinib + Olaparib; first compound 0.03162 µM) | relative viability (Crizotinib + Olaparib; first compound 0.1 µM) | relative viability (Crizotinib + Olaparib; first compound 0.3162 µM) | relative viability (Crizotinib + Olaparib; first compound 1 µM) | relative viability (Crizotinib + Pictilisib; first compound 0.01 µM) | relative viability (Crizotinib + Pictilisib; first compound 0.03162 µM) | relative viability (Crizotinib + Pictilisib; first compound 0.1 µM) | relative viability (Crizotinib + Pictilisib; first compound 0.3162 µM) | relative viability (Crizotinib + Pictilisib; first compound 1 µM)
NCI-H358 | 0.338 | 0.4 | 0.203 | 0.0604 | 0.0694 | 0.449 | 0.615 | 0.63 | 0.255 | 0.226 | 0.634 | 0.599 | 0.54 | 0.561 | 0.582 | 0.338 | 0.354 | 0.35 | 0.27 | 0.325
NCI-H441 | 0.785 | 0.898 | 0.242 | 0.161 | 0.177 | 1.06 | 1.23 | 1.07 | 0.252 | 0.138 | 0.595 | 0.444 | 0.583 | 0.517 | 0.587 | 0.436 | 0.395 | 0.432 | 0.34 | 0.443
NCI-H460 | 0.553 | 0.582 | 0.571 | 0.0312 | 0.0172 | 0.655 | 0.567 | 0.687 | 0.732 | 0.0739 | 0.463 | 0.457 | 0.455 | – | 0.423 | 0.4 | 0.349 | 0.302 | 0.309 | 0.314
NCI-H596 | 0.807 | 0.812 | 0.781 | 0.433 | 0.25 | 1.05 | 1.22 | 1.09 | 0.66 | 0.211 | 0.698 | 0.675 | 0.695 | 0.642 | 0.671 | 0.348 | 0.378 | 0.354 | 0.414 | 0.367
NCI-H647 | 0.485 | 0.667 | 0.237 | 0.0272 | 0.0185 | 0.385 | 0.468 | 0.29 | 0.0154 | 0.0223 | 0.444 | 0.68 | 0.564 | 0.505 | 0.597 | 0.432 | 0.393 | 0.459 | – | 0.269
NCI-H650 | – | 0.536 | 0.451 | 0.345 | 0.148 | 0.862 | 1.1 | 0.964 | 0.88 | 0.23 | 0.481 | 0.465 | 0.396 | – | 0.346 | 0.883 | 0.893 | 0.865 | 0.799 | 0.783
NCI-H727 | 0.559 | 0.626 | 0.573 | 0.256 | 0.182 | 0.511 | 0.498 | 0.685 | 0.608 | 0.242 | 0.462 | 0.565 | 0.647 | 0.518 | 0.737 | 0.368 | 0.389 | 0.561 | 0.285 | 0.29
NCI-H838 | 0.66 | 0.865 | 0.537 | 0.122 | 0.13 | 0.945 | 0.989 | 0.954 | 0.962 | 0.621 | 0.712 | 0.763 | 0.78 | 0.712 | 0.726 | 0.396 | 0.5 | 0.483 | 0.426 | 0.496
NCI-H1355 | 0.427 | 0.51 | 0.469 | 0.302 | 0.167 | 0.8 | 0.886 | 0.91 | 0.512 | 0.207 | 0.714 | 0.715 | 0.797 | 0.622 | 0.728 | 0.45 | 0.52 | 0.413 | 0.297 | 0.434
NCI-H1395 | 0.448 | 0.457 | 0.441 | 0.298 | 0.314 | – | 0.451 | 0.399 | 0.346 | 0.327 | 0.458 | 0.452 | 0.5 | 0.487 | 0.428 | 0.621 | 0.557 | 0.73 | 0.906 | 0.542
NCI-H1437 | 0.306 | 0.346 | 0.301 | 0.249 | 0.123 | 1.07 | 1.13 | 1.13 | 1.14 | 0.478 | 0.625 | 0.608 | 0.627 | 0.651 | 0.66 | 0.311 | 0.461 | 0.389 | 0.375 | 0.439
NCI-H1651 | 0.33 | 0.342 | 0.173 | 0.133 | 0.0929 | 0.372 | 0.471 | 0.457 | 0.208 | 0.0827 | 0.183 | 0.2 | 0.185 | 0.173 | 0.194 | 0.437 | 0.65 | 0.514 | 0.559 | 0.572
NCI-H1666 | 0.594 | 0.569 | 0.528 | 0.428 | 0.278 | 0.837 | 0.935 | 1.1 | 0.704 | 0.475 | 0.711 | 0.788 | 0.819 | 0.695 | 0.771 | 0.483 | 0.484 | 0.325 | 0.553 | 0.3
NCI-H1734 | 0.375 | 0.404 | 0.331 | 0.18 | 0.104 | 0.549 | 0.633 | 0.521 | 0.204 | 0.114 | 0.63 | 0.574 | 0.624 | – | 0.608 | 0.419 | 0.406 | 0.381 | – | 0.39
NCI-H1755 | 0.623 | 0.664 | 0.66 | 0.592 | 0.238 | 0.476 | 0.502 | 0.496 | 0.435 | 0.409 | 0.779 | 0.867 | 0.854 | 0.923 | 0.827 | 0.413 | 0.485 | 0.444 | 0.309 | 0.437
